These molecules were tested on KCL-22 (assay: cell viability (% survival relative to DMSO control, bortezomib = 0%); higher = less cytotoxic). Settings: 10 nM; 72 h.
Procedure, shortened: (§1)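 Percent survival figures are means of duplicate wells. They were obtained by CellTiter-Glo luminescence after 10 AML and 5 CML cell lines spent 72 h at 37 °C with 5% CO2 in 384-well plates with compounds at 1, 10, 100, 1000 or 10000 nM. Vehicle was set to 100% and a 10 µM positive control to 0%.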

| SMILES | cell viability |
| --- | --- |
| Nc1nc(Cl)nc2c1ncn2[C@H]1C[C@H](O)[C@@H](CO)O1 [Cladribine] | 111% |
| NCCCC(N)(C(=O)O)C(F)F (stereo unspecified) [Difluoromethylornithine] | 84.4% |

Same assay, conditions: 100 nM; 72 h

| SMILES | cell viability |
| --- | --- |
| COc1ccc(S(=O)(=O)N2CCN(S(=O)(=O)c3ccc4c(c3)OCCO4)CC2)cc1 [BML283] | 91.1% |
| O=c1cc(-c2ccccc2)oc2cc(O)c(O)c(O)c12 [Baicalein] | 113% |
| COC(=O)[C@]12CCC(C)(C)C[C@H]1[C@H]1C(=O)C=C3[C@@]4(C)C=C(C#N)C(=O)C(C)(C)[C@@H]4CC[C@@]3(C)[C@]1(C)CC2 [Bardoxolone methyl] | 112% |
| O=c1oc2c(O)c(O)cc3c(=O)oc4c(O)c(O)cc1c4c23 [Benzoaric Acid] | 99% |
| Cc1c(-c2ccc(-c3ccccc3F)cc2)nc2ccc(F)cc2c1C(=O)O [Brequinar] | 97.9% |
| O=C1O/C(=C/Br)CCC1c1cccc2ccccc12 (stereo unspecified) [Bromoenol Lactone] | 104% |
| O=C(O)CCCCC(CCSCc1ccccc1)SCc1ccccc1 (stereo unspecified) [CPI-613] | 105% |
| CC(C)c1cc2c(c(O)c1O)[C@@]1(C(=O)O)CCCC(C)(C)[C@@H]1CC2 [Carnosic acid] | 73.1% |
| CCN(CC)CCCC(C)Nc1ccnc2cc(Cl)ccc12 (stereo unspecified) [Chloroquine] | 100% |
| Nc1nc(Cl)nc2c1ncn2[C@H]1C[C@H](O)[C@@H](CO)O1 [Cladribine] | 68.9% |
| NCCCC(N)(C(=O)O)C(F)F (stereo unspecified) [Difluoromethylornithine] | 88.1% |

Same assay, conditions: 1000 nM; 72 h

| SMILES | cell viability |
| --- | --- |
| COc1ccc(S(=O)(=O)N2CCN(S(=O)(=O)c3ccc4c(c3)OCCO4)CC2)cc1 [BML283] | 98.1% |
| O=c1cc(-c2ccccc2)oc2cc(O)c(O)c(O)c12 [Baicalein] | 102% |
| COC(=O)[C@]12CCC(C)(C)C[C@H]1[C@H]1C(=O)C=C3[C@@]4(C)C=C(C#N)C(=O)C(C)(C)[C@@H]4CC[C@@]3(C)[C@]1(C)CC2 [Bardoxolone methyl] | 56.2% |
| O=c1oc2c(O)c(O)cc3c(=O)oc4c(O)c(O)cc1c4c23 [Benzoaric Acid] | 97.8% |
| Cc1c(-c2ccc(-c3ccccc3F)cc2)nc2ccc(F)cc2c1C(=O)O [Brequinar] | 56.3% |
| O=C1O/C(=C/Br)CCC1c1cccc2ccccc12 (stereo unspecified) [Bromoenol Lactone] | 86.6% |
| O=C(O)CCCCC(CCSCc1ccccc1)SCc1ccccc1 (stereo unspecified) [CPI-613] | 115% |
| CC(C)c1cc2c(c(O)c1O)[C@@]1(C(=O)O)CCCC(C)(C)[C@@H]1CC2 [Carnosic acid] | 103% |
| CCN(CC)CCCC(C)Nc1ccnc2cc(Cl)ccc12 (stereo unspecified) [Chloroquine] | 95.7% |
| Nc1nc(Cl)nc2c1ncn2[C@H]1C[C@H](O)[C@@H](CO)O1 [Cladribine] | 15.6% |
| NCCCC(N)(C(=O)O)C(F)F (stereo unspecified) [Difluoromethylornithine] | 95% |

Same assay, conditions: 10000 nM; 72 h

| SMILES | cell viability |
| --- | --- |
| COc1ccc(S(=O)(=O)N2CCN(S(=O)(=O)c3ccc4c(c3)OCCO4)CC2)cc1 [BML283] | 91.2% |
| O=c1cc(-c2ccccc2)oc2cc(O)c(O)c(O)c12 [Baicalein] | 49.3% |
| COC(=O)[C@]12CCC(C)(C)C[C@H]1[C@H]1C(=O)C=C3[C@@]4(C)C=C(C#N)C(=O)C(C)(C)[C@@H]4CC[C@@]3(C)[C@]1(C)CC2 [Bardoxolone methyl] | 0.0358% |
| O=c1oc2c(O)c(O)cc3c(=O)oc4c(O)c(O)cc1c4c23 [Benzoaric Acid] | 124% |
| Cc1c(-c2ccc(-c3ccccc3F)cc2)nc2ccc(F)cc2c1C(=O)O [Brequinar] | 29.2% |
| O=C1O/C(=C/Br)CCC1c1cccc2ccccc12 (stereo unspecified) [Bromoenol Lactone] | 52.2% |
| O=C(O)CCCCC(CCSCc1ccccc1)SCc1ccccc1 (stereo unspecified) [CPI-613] | 97.2% |
| CC(C)c1cc2c(c(O)c1O)[C@@]1(C(=O)O)CCCC(C)(C)[C@@H]1CC2 [Carnosic acid] | 90.7% |
| CCN(CC)CCCC(C)Nc1ccnc2cc(Cl)ccc12 (stereo unspecified) [Chloroquine] | 102% |
| Nc1nc(Cl)nc2c1ncn2[C@H]1C[C@H](O)[C@@H](CO)O1 [Cladribine] | 7.11% |
| NCCCC(N)(C(=O)O)C(F)F (stereo unspecified) [Difluoromethylornithine] | 101% |

What follows are molecules tested on BV-173 in the same assay as above. Settings: 1 nM; 72 h.
Procedure, shortened: as §1

| SMILES | cell viability |
| --- | --- |
| COc1ccc(S(=O)(=O)N2CCN(S(=O)(=O)c3ccc4c(c3)OCCO4)CC2)cc1 [BML283] | 89.9% |
| O=c1cc(-c2ccccc2)oc2cc(O)c(O)c(O)c12 [Baicalein] | 100% |
| COC(=O)[C@]12CCC(C)(C)C[C@H]1[C@H]1C(=O)C=C3[C@@]4(C)C=C(C#N)C(=O)C(C)(C)[C@@H]4CC[C@@]3(C)[C@]1(C)CC2 [Bardoxolone methyl] | 89.7% |
| O=c1oc2c(O)c(O)cc3c(=O)oc4c(O)c(O)cc1c4c23 [Benzoaric Acid] | 92.9% |
| Cc1c(-c2ccc(-c3ccccc3F)cc2)nc2ccc(F)cc2c1C(=O)O [Brequinar] | 94.7% |
| O=C1O/C(=C/Br)CCC1c1cccc2ccccc12 (stereo unspecified) [Bromoenol Lactone] | 98.1% |
| O=C(O)CCCCC(CCSCc1ccccc1)SCc1ccccc1 (stereo unspecified) [CPI-613] | 89% |
| CC(C)c1cc2c(c(O)c1O)[C@@]1(C(=O)O)CCCC(C)(C)[C@@H]1CC2 [Carnosic acid] | 87.5% |
| CCN(CC)CCCC(C)Nc1ccnc2cc(Cl)ccc12 (stereo unspecified) [Chloroquine] | 111% |
| Nc1nc(Cl)nc2c1ncn2[C@H]1C[C@H](O)[C@@H](CO)O1 [Cladribine] | 128% |
| NCCCC(N)(C(=O)O)C(F)F (stereo unspecified) [Difluoromethylornithine] | 97.1% |

Same assay, conditions: 10 nM; 72 h

| SMILES | cell viability |
| --- | --- |
| COc1ccc(S(=O)(=O)N2CCN(S(=O)(=O)c3ccc4c(c3)OCCO4)CC2)cc1 [BML283] | 85.8% |
| O=c1cc(-c2ccccc2)oc2cc(O)c(O)c(O)c12 [Baicalein] | 99.5% |
| COC(=O)[C@]12CCC(C)(C)C[C@H]1[C@H]1C(=O)C=C3[C@@]4(C)C=C(C#N)C(=O)C(C)(C)[C@@H]4CC[C@@]3(C)[C@]1(C)CC2 [Bardoxolone methyl] | 102% |
| O=c1oc2c(O)c(O)cc3c(=O)oc4c(O)c(O)cc1c4c23 [Benzoaric Acid] | 101% |
| Cc1c(-c2ccc(-c3ccccc3F)cc2)nc2ccc(F)cc2c1C(=O)O [Brequinar] | 90.3% |
| O=C1O/C(=C/Br)CCC1c1cccc2ccccc12 (stereo unspecified) [Bromoenol Lactone] | 104% |
| O=C(O)CCCCC(CCSCc1ccccc1)SCc1ccccc1 (stereo unspecified) [CPI-613] | 97.3% |
| CC(C)c1cc2c(c(O)c1O)[C@@]1(C(=O)O)CCCC(C)(C)[C@@H]1CC2 [Carnosic acid] | 96.7% |
| CCN(CC)CCCC(C)Nc1ccnc2cc(Cl)ccc12 (stereo unspecified) [Chloroquine] | 89.5% |
| Nc1nc(Cl)nc2c1ncn2[C@H]1C[C@H](O)[C@@H](CO)O1 [Cladribine] | 4.77% |
| NCCCC(N)(C(=O)O)C(F)F (stereo unspecified) [Difluoromethylornithine] | 91.2% |

Same assay, conditions: 100 nM; 72 h

| SMILES | cell viability |
| --- | --- |
| COc1ccc(S(=O)(=O)N2CCN(S(=O)(=O)c3ccc4c(c3)OCCO4)CC2)cc1 [BML283] | 97.5% |
| O=c1cc(-c2ccccc2)oc2cc(O)c(O)c(O)c12 [Baicalein] | 96.2% |
| COC(=O)[C@]12CCC(C)(C)C[C@H]1[C@H]1C(=O)C=C3[C@@]4(C)C=C(C#N)C(=O)C(C)(C)[C@@H]4CC[C@@]3(C)[C@]1(C)CC2 [Bardoxolone methyl] | 116% |
| O=c1oc2c(O)c(O)cc3c(=O)oc4c(O)c(O)cc1c4c23 [Benzoaric Acid] | 92.8% |
